Data taken from PubChem BioAssay AID236 (DTP/NCI, 2004).
Where “and” joins values, the source holds several entries; their conditions need not be identical. Equal values may be shown once. Toxic doses and inconclusive results are not listed.

System: AK4 lymphoid leukemia ip, C3AKF1 mice, survival
Assay: NCI In Vivo Anticancer Drug Screen. Data for tumor model AK4 Lymphoid Leukemia (intraperitoneal) in C3AKF1 (CHKRF1) mice
Settings: endpoint: median survival time, higher = longer survival
Method: The antitumor activity of compounds was measured in mice bearing transplantable tumors. Survival or tumor size were measured and the results are expressed as the measurement made in the treated group (T) divided by the measurement made in the vehicle treated control group (C). The tumor model used in this assay is AK4 Lymphoid Leukemia (intraperitoneal) in C3AKF1 (CHKRF1) mice

[1] = dose: 0.5 mg/kg/injection, schedule: Q01DX010 (ip), vehicle: saline
[2] = dose: 2.0 mg/kg/injection, schedule: Q01DX010 (ip), vehicle: saline
[3] = dose: 4.0 mg/kg/injection, schedule: Q01DX010 (ip), vehicle: saline
[4] = dose: 8.0 mg/kg/injection, schedule: Q01DX010 (ip), vehicle: saline
[5] = dose: 16.0 mg/kg/injection, schedule: Q01DX010 (ip), vehicle: saline

In the case of `CCC(=O)O[C@H]1CC[C@H]2[C@@H]3CCC4=CC(=O)CC[C@]4(C)[C@H]3CC[C@]12C`, the T/C (dose: 125.0 mg/kg/injection, schedule: Q01DX010 (sc), vehicle: steriod suspending solution) is reported as 87 % of control, the T/C (dose: 250.0 mg/kg/injection, schedule: Q01DX010 (sc), vehicle: steriod suspending solution) is reported as 87 % of control and the T/C (dose: 500.0 mg/kg/injection, schedule: Q01DX010 (sc), vehicle: steriod suspending solution) is reported as 93 % of control. The T/C (dose: 1000.0 mg/kg/injection, schedule: Q01DX010 (sc), vehicle: steriod suspending solution) was 87 % of control.
In the case of `N#CCSc1ncnc2nc[nH]c12`, the T/C (dose: 15.0 mg/kg/injection, schedule: Q01DX010 (ip), vehicle: saline) is reported as 87 % of control, the T/C (dose: 30.0 mg/kg/injection, schedule: Q01DX010 (ip), vehicle: saline) is reported as 93 % of control and the T/C (dose: 60.0 mg/kg/injection, schedule: Q01DX010 (ip), vehicle: saline) is reported as 93 % of control. The T/C (dose: 120.0 mg/kg/injection, schedule: Q01DX010 (ip), vehicle: saline) was 87 % of control.
In the case of `O=C(Nc1ccc(C2=NCCN2)cc1)c1ccc(C(=O)Nc2ccc(C3=NCCN3)cc2)c([N+](=O)[O-])c1`, the T/C (dose: 6.0 mg/kg/injection, schedule: Q01DX010 (ip), vehicle: saline) is reported as 150 % of control, the T/C (dose: 12.0 mg/kg/injection, schedule: Q01DX010 (ip), vehicle: saline) is reported as 155 % of control and 210 % of control and the T/C (dose: 18.0 mg/kg/injection, schedule: Q01DX010 (ip), vehicle: saline) is reported as 100 % of control and 240 % of control.
With `C[C@]12C=CC(=O)C=C1CC[C@@H]1[C@@H]2[C@@H](O)C[C@@]2(C)[C@H]1CC[C@]2(O)C(=O)CO` the T/C (dose: 12.5 mg/kg/injection, schedule: Q01DX010 (sc), vehicle: steriod suspending solution) was 90 % of control and 110 % of control, the T/C (dose: 25.0 mg/kg/injection, schedule: Q01DX010 (sc), vehicle: steriod suspending solution) was 95 % of control and the T/C (dose: 50.0 mg/kg/injection, schedule: Q01DX010 (sc), vehicle: steriod suspending solution) was 100 % of control and 105 % of control. For the same compound, the T/C (dose: 100.0 mg/kg/injection, schedule: Q01DX010 (sc), vehicle: steriod suspending solution) was 90 % of control.
In the case of `O=CN(O)CC(=O)O`, the T/C (dose: 62.5 mg/kg/injection, schedule: Q01DX010 (ip), vehicle: saline) is reported as 100 % of control and the T/C (dose: 500.0 mg/kg/injection, schedule: Q01DX010 (ip), vehicle: saline) is reported as 90 % of control.
In the case of `CC[C@]1(O)C[C@H]2CN(CCc3c([nH]c4ccccc34)[C@@](C(=O)OC)(c3cc4c(cc3OC)N(C=O)[C@H]3[C@@](O)(C(=O)OC)[C@H](OC(C)=O)[C@]5(CC)C=CCN6CC[C@]43[C@@H]65)C2)C1`, the T/C (dose: 0.03 mg/kg/injection, schedule: Q01DX010 (ip), vehicle: saline) is reported as 100 % of control and 115 % of control, the T/C (dose: 0.03 mg/kg/injection, schedule: Q01DX Z (ip), vehicle: saline) is reported as 96 % of control and 106 % of control and the T/C (dose: 0.06 mg/kg/injection, schedule: Q01DX010 (ip), vehicle: saline) is reported as 90 % of control and 112 % of control. The T/C (dose: 0.06 mg/kg/injection, schedule: Q01DX Z (ip), vehicle: saline) was 96 % of control and 106 % of control, the T/C (dose: 0.12 mg/kg/injection, schedule: Q01DX Z (ip), vehicle: saline) was 102 % of control and 106 % of control and the T/C (dose: 0.25 mg/kg/injection, schedule: Q01DX010 (ip), vehicle: saline) was 115 % of control. For the same compound, the T/C (dose: 0.25 mg/kg/injection, schedule: Q01DX Z (ip), vehicle: saline) was 102 % of control and 120 % of control, the T/C [1] was 93 % of control and the T/C (dose: 62.5 micrograms/kg/injection, schedule: Q01DX010 (ip), vehicle: saline) was 112 % of control.
In the case of `O=C(Nc1ccc(NC2=NCCN2)cc1)c1ccc(C(=O)Nc2ccc(NC3=NCCN3)cc2)cc1`, the T/C [2] is reported as 95 % of control and 105 % of control, the T/C [3] is reported as 90 % of control and 110 % of control and the T/C [4] is reported as 110 % of control. For the same compound, the T/C [5] was 150 % of control.
`NC(Cc1ccc(N(CCCl)CCCl)cc1)C(=O)O` (centres undefined) was tested, and the T/C [2] was 150 % of control, the T/C (dose: 2.5 mg/kg/injection, schedule: Q01DX010 (ip), vehicle: saline) was 164 % of control and the T/C (dose: 5.0 mg/kg/injection, schedule: Q01DX010 (ip), vehicle: saline) was 164 % of control. The T/C [4] was 150 % of control, the T/C (dose: 10.0 mg/kg/injection, schedule: Q01DX010 (ip), vehicle: saline) was 158 % of control and the T/C [5] was 100 % of control. The T/C (dose: 20.0 mg/kg/injection, schedule: Q01DX010 (ip), vehicle: saline) was 117 % of control.
In the case of `C#CCN(C)Cc1ccccc1`, the T/C (dose: 50.0 mg/kg/injection, schedule: Q01DX010 (ip), vehicle: saline) is reported as 88 % of control, the T/C (dose: 100.0 mg/kg/injection, schedule: Q01DX010 (ip), vehicle: saline) is reported as 88 % of control and the T/C (dose: 200.0 mg/kg/injection, schedule: Q01DX010 (ip), vehicle: saline) is reported as 88 % of control.
`CC(=O)NC1=C(N2CC2)C(=O)C(NC(C)=O)=C(N2CC2)C1=O` was tested, and the T/C [1] was 152 % of control, the T/C (dose: 1.0 mg/kg/injection, schedule: Q01DX010 (ip), vehicle: saline) was 152 % of control and the T/C [2] was 88 % of control. For the same compound, the T/C (dose: 125.0 micrograms/kg/injection, schedule: Q01DX010 (ip), vehicle: saline) was 100 % of control, the T/C (dose: 250.0 micrograms/kg/injection, schedule: Q01DX010 (ip), vehicle: saline) was 111 % of control and the T/C (dose: 500.0 micrograms/kg/injection, schedule: Q01DX010 (ip), vehicle: saline) was 116 % of control.
In the case of `CC(CCC(C)OS(C)(=O)=O)OS(C)(=O)=O` (centres undefined), the T/C [2] is reported as 88 % of control, the T/C [3] is reported as 88 % of control and the T/C [4] is reported as 94 % of control.
